Data: patent US10865216B2, “Tricyclic Gyrase inhibitors” (MERCK SHARP & DOHME CORP., priority 2012, dated 2020)
Read-outs that look alike come from different tables or passages of the source.

Assays:
S. aureus ATCC 13709 = test: MIC, S. aureus ATCC 13709; format: cell-based; conditions: for SA MIC: Table 14, R2 is a 5 membered heterocycle; for MIC Sa: S. aureus, Alamar Blue read after overnight incubation at 35° C.; for Sa MIC: Table 10, Sa = S. aureus
[1] = test system: S. aureus ATCC 13709 + mouse serum; test: MIC, SA + serum (S. aureus ATCC 13709, MHCA + mouse serum); format: cell-based; conditions: Table 14; R2 is a 5 membered heterocycle
E. coli ATCC 25922 = test: MIC, E. coli ATCC 25922; format: cell-based; conditions: for EC8 MIC: Table 14, R2 is a 5 membered heterocycle, EC8 not defined; for MIC Ec: E. coli, Alamar Blue read after overnight incubation at 35° C.; for Ec MIC: Table 10, Ec = E. coli, strain not stated
[2] = amide bond, BOP, 40.0 °C
S. pneumoniae ATCC 51916 = test: MIC, S. pneumoniae ATCC 51916; format: cell-based; conditions: Table 10; Spn = S. pneumoniae
P. aeruginosa ATCC 15692 = test: MIC, P. aeruginosa ATCC 15692; format: cell-based; conditions: Table 10; Pa = P. aeruginosa
A. baumannii ATCC 19606 = test: MIC, A. baumannii ATCC 19606; format: cell-based; conditions: Table 10; Ab = A. baumannii, strain not stated
[3] = test system: K. pneumoniae ATCC 700603; test: MIC, K. pneumoniae ATCC 700603; format: cell-based; conditions: Table 10; Kpn = K. pneumoniae
Y. pestis CO92 pgm- = format: cell-based; conditions: Table 10
[4] = test system: B. thailandensis ATCC E264; test: microbe, parasite or virus in culture; format: cell-based
[5] = test system: F. tularensis holarctica LVS; test: microbe, parasite or virus in culture; format: cell-based; conditions: Table 10; Ft = F. tularensis, strain not stated

SMILES	SA MIC (S. aureus ATCC 13709)	SA+ serum MIC [1] [µg/mL]	EC8 MIC (E. coli ATCC 25922) [µg/mL]	MIC Sa (S. aureus ATCC 13709) [µg/mL]	Sa MIC (S. aureus ATCC 13709) [µg/mL]	Spn MIC (S. pneumoniae ATCC 51916) [µg/mL]	MIC Ec (E. coli ATCC 25922) [µg/mL]	Ec MIC (E. coli ATCC 25922) [µg/mL]	Pa MIC (P. aeruginosa ATCC 15692) [µg/mL]	Ab MIC (A. baumannii ATCC 19606) [µg/mL]	Kpn MIC [3] [µg/mL]	Yp MIC (Y. pestis CO92 pgm-) [µg/mL]	Bt MIC [4] [µg/mL]	Ft MIC [5] [µg/mL]	also measured
CNc1cc(F)cc2c1[nH]c1nc(Sc3nc4ccccc4s3)nc(N3C[C@H]4C[C@@H]3C[C@H]4N)c12	1 µg/mL	4	16												
CNc1cc(F)cc2c1[nH]c1nc(Sc3nnc(C)s3)nc(N3C[C@H]4C[C@@H]3C[C@H]4N)c12	≤ 0.5 µg/mL	≤ 0.5	≤ 0.5												
CNc1cc(F)cc2c1[nH]c1nc(Sc3nc(C(=O)OC)cs3)nc(N3CC4CC(N)C4C3)c12 (centres unmarked)	≤ 0.5 µg/mL	2	≤ 0.5												
CNc1cc(F)cc2c1[nH]c1nc(Sc3nc(C(=O)O)cs3)nc(N3CC4CC(N)C4C3)c12 (centres unmarked)	≤ 0.5 µg/mL	2	> 16												
CNc1cc(F)cc2c1[nH]c1nc(Sc3nc(Br)cs3)nc(N3CC4CC(N)C4C3)c12 (centres unmarked)	≤ 0.5 µg/mL	≤ 0.5	≤ 0.5												
CN(C(=O)OC(C)(C)C)c1cc(F)cc2c1[nH]c1nc3nc(c12)NCCCCCCNC(=O)CSc1ncc(cn1)O3															ring closure, yield of all isomers ([2]; from CN(C(=O)OC(C)(C)C)c1cc(F)cc2c1[nH]c1nc(Oc3cnc(SCC(=O)O)nc3)nc(NCCCCCCN)c12, then EDC (Et3N), DCM/NMP, 30.0 mM, 3.0 h): 72%
CN(C(=O)OC(C)(C)C)c1cc(F)cc2c1[nH]c1nc3nc(c12)NCCCCCCNC(=O)c1cncc(c1)O3															ring closure, yield of all isomers ([2]; from CN(C(=O)OC(C)(C)C)c1cc(F)cc2c1[nH]c1nc(Oc3cncc(C(=O)O)c3)nc(NCCCCCCN)c12, then EDC (Et3N), DCM/NMP, 18.5 mM, 3.0 h): 74%
CNc1cc(F)cc2c1[nH]c1nc3nc(c12)N1CC(CNC(=O)COc2cc(C#N)cc(c2)O3)C1															ring closure, yield of all isomers ([2]; from CNc1cc(F)cc2c1[nH]c1nc(Oc3cc(C#N)cc(OCC(=O)O)c3)nc(N3CC(CN)C3)c12, EDC (Et3N), DCM/NMP (1:1), 40.0 mM, 2.0 h): 17%
CNc1cc(F)cc2c1[nH]c1nc3nc(c12)N[C@H](CN)COCCCNC(=O)CSc1ncc(cn1)O3															ring closure, yield of all isomers ([2]; from CNc1cc(F)cc2c1[nH]c1nc(Oc3cnc(SCC(=O)O)nc3)nc(N[C@H](CN)COCCCN)c12, then EDC (Et3N), DCM/NMP (1:1), 38.5 mM, 3.0 h): 57%
CNc1cc(F)cc2c1[nH]c1nc(Oc3cnc4cccnc4c3)nc(N3CC4(CCC4N)C3)c12 (centres unmarked) [Compound 4.045]				≤0.5	≤0.5	≤0.5	≤0.5	≤0.5	4	≤0.5	8	≤0.5	1	2	
CNc1cc(F)cc2c1[nH]c1nc(Oc3cnc(C)nc3)nc(N3CCC4(CC4N)C3)c12 (centres unmarked) [Compound 4.066]				≤0.5	≤0.5	≤0.5	≤0.5	≤0.5	2	≤0.5	2	≤0.5	≤0.5	1	
CNc1cc(F)cc2c1[nH]c1nc(Oc3cnc(C)nc3)nc(N3CC(N)C4(CC4)C3)c12 (centres unmarked) [Compound 4.069]				≤0.5	≤0.5	≤0.5	≤0.5	≤0.5	4	≤0.5	2	≤0.5	≤0.5	2	
CNc1cc(F)cc2c1[nH]c1nc(Oc3cnc(C)nc3)nc(N3CC4C(N)C4C3)c12 (centres unmarked) [Compound 4.073]				≤0.5	≤0.5	≤0.5	≤0.5	≤0.5	4	≤0.5	2	≤0.5	≤0.5	1	
CNc1cc(F)cc2c1[nH]c1nc(Oc3cnc(C)nc3)nc(N3CC4CC(N)C4C3)c12 (centres unmarked) [Compound 4.084]				≤0.5	≤0.5	≤0.5	≤0.5	≤0.5	1	≤0.5	4	≤0.5	≤0.5	≤0.5	
CNc1cc(F)cc2c1[nH]c1nc(Oc3cnc(C)nc3)nc(N3C[C@@H]4CCN[C@@H]4C3)c12 [Compound 4.103]				≤0.5	≤0.5	≤0.5	≤0.5	≤0.5	2	≤0.5	2	≤0.5	≤0.5	1	
CNc1cc(F)cc2c1[nH]c1nc(Oc3cnc(C)nc3)nc(N3CC4(CC[C@H]4N)C3)c12 [Compound 4.105]				≤0.5	≤0.5	≤0.5	≤0.5	≤0.5	1	≤0.5	2	≤0.5	≤0.5	1	
CNc1cc(F)cc2c1[nH]c1nc(Oc3cnc(C)nc3)nc(N3CCC4(CCC4N)C3)c12 (centres unmarked) [Compound 4.117]				≤0.5	≤0.5	≤0.5	≤0.5	≤0.5	1	≤0.5	2	≤0.5	≤0.5	1	
CNc1cc(F)cc2c1[nH]c1nc(Sc3nncs3)nc(N3C[C@H]4C[C@@H]3C[C@H]4N)c12 [drawing 1754]	<≤ 0.5	≤ 0.5	≤ 0.5												
CCOC(=O)c1csc(Nc2nc(N3C[C@H]4C[C@@H]3C[C@H]4N)c3c(n2)[nH]c2c(NC)cc(F)cc23)n1 [drawing 1760]	≤ 0.5 µg/mL	> 16	1												
